From patent US8541447B2 (priority 2003, dated 2013)
Like-named read-outs stand apart in the source and are kept apart here.

Biological target: muscarinic M3 receptor (Homo sapiens (Human), UniProt P20309)
Assay type: binding

O=C(Nc1ccc(Br)cc1)OC1C2CCN(CC2)C1Cc1cccnc1 (centres unmarked) [Compound 1, 2-((3-pyridinyl)methyl)-1-azabicyclo[2.2.2]oct-3-yl N-(4-bromophenyl)carbamate]
ability to inhibit [3H]QNB binding at muscarinic sites: None of the compounds was able to inhibit [^3H]QNB binding

O=C(Nc1ccccc1)OC1C2CCN(CC2)C1Cc1cccnc1 (centres unmarked) [Compound 2, 2-((3-pyridinyl)methyl)-1-azabicyclo[2.2.2]oct-3-yl N-phenylcarbamate]
ability to inhibit [3H]QNB binding at muscarinic sites: None of the compounds was able to inhibit [^3H]QNB binding

COc1ccc(NC(=O)OC2C3CCN(CC3)C2Cc2cccnc2)cc1 (centres unmarked) [Compound 4, 2-((3-pyridinyl)methyl)-1-azabicyclo[2.2.2]oct-3-yl N-(4-methoxyphenyl)carbamate]
ability to inhibit [3H]QNB binding at muscarinic sites: None of the compounds was able to inhibit [^3H]QNB binding

O=C(NC1C2CCN(CC2)C1Cc1cccnc1)c1cc2ccccc2o1 (centres unmarked) [Compound 9, N-(2-((3-pyridinyl)methyl)-1-azabicyclo[2.2.2]oct-3-yl)benzofuran-2-carboxamide]
ability to inhibit [3H]QNB binding at muscarinic sites (human clonal line TE671/RD): None of the compounds was able to inhibit [^3H]QNB binding

O=C(NC1C2CCN(CC2)C1Cc1cccnc1)c1ccc(Sc2ccccc2)cc1 (centres unmarked) [Compound 11]
ability to inhibit [3H]QNB binding at muscarinic sites (human clonal line TE671/RD): None of the compounds was able to inhibit [^3H]QNB binding
